{"source": "the Kinase Knowledgebase extract (Sharma et al. 2016)", "note": "pIC50: −log10 of the molar value."}
{"target": "EGFR (rat) (UniProt P00533)", "sequence (P00533 whole entry, looked up)": "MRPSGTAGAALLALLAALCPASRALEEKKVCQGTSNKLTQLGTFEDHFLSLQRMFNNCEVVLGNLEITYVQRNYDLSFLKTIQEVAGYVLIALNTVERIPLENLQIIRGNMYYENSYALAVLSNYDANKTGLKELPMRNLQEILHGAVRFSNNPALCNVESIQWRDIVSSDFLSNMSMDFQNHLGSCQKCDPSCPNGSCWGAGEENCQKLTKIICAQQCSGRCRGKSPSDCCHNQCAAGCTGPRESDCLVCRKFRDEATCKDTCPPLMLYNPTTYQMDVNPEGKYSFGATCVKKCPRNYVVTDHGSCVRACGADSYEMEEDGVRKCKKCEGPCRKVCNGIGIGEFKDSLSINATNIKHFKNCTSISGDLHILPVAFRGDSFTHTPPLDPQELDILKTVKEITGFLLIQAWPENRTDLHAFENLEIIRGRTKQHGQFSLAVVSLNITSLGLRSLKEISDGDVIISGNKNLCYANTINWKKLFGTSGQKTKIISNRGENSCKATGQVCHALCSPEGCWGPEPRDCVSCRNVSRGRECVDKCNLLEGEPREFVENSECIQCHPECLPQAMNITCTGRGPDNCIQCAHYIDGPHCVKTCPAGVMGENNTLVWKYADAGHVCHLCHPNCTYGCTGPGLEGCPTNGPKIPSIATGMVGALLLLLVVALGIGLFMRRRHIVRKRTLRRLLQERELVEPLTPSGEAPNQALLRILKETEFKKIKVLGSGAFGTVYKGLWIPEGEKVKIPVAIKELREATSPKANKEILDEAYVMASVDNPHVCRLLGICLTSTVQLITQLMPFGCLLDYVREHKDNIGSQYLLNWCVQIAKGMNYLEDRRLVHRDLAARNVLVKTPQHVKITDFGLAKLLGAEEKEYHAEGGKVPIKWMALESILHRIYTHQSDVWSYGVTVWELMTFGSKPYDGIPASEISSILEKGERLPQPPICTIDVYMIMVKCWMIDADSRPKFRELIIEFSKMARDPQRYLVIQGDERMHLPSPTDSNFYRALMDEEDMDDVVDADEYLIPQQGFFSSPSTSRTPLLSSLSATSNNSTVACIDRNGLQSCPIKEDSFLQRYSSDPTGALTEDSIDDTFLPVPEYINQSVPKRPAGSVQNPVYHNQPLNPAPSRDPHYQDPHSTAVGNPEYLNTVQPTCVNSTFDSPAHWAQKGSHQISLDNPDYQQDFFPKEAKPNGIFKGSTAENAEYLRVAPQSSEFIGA", "conditions": "rat-1/her cells"}
{"smiles": "O=Cc1cc(Br)cc(Br)c1O", "pIC50": 3.92}
{"smiles": "COC1=C(Br)C(=O)[C@]2(C=C1Br)CO2", "pIC50": 5.00}
{"smiles": "COC1=C(Br)C(=O)[C@](CC#N)(OC(C)=O)C=C1Br", "pIC50": 4.26}
{"smiles": "COc1c(Br)cc(C=O)c(O)c1Br", "pIC50": 4.46}
{"target": "EGFR (rat) (UniProt P00533)", "conditions": "rat-1/her cells, dose or concentration not given here", "units": {"inhibition": "%"}}
{"smiles": "COc1c(Br)cc(CC#N)c(O)c1Br", "inhibition": 0}
{"smiles": "COC1=C(Br)C(=O)[C@@](O)(CC#N)C=C1Br", "inhibition": 0}
{"smiles": "COc1c(Br)cc(CO)c(O)c1Br", "inhibition": 0}
{"smiles": "COc1c(Br)cc2c(c1Br)OCO2", "inhibition": 0}
{"smiles": "COC1=C(Br)C(O)(O)[C@@](O)(CC#N)CC1Br", "note": "(stereo partly drawn)", "inhibition": 0}
{"smiles": "COc1c(Br)cc(O)c(O)c1Br", "inhibition": 0}
{"smiles": "COC1=C(Br)[C@H](O)[C@@](O)(CC#N)C=C1Br", "inhibition": 0}
{"smiles": "COc1ccc(C=O)c(O)c1", "inhibition": 0}
{"smiles": "COC1=C(Br)[C@@H](O)[C@@](O)(CC#N)C=C1Br", "inhibition": 0}
